Consider six compounds from US8426587B2, “Haloallylamine inhibitors of SSAO/VAP-1 and uses therefor” (Pharmaxis Ltd., priority 2007, dated 2013).

pIC50: −log10 of the molar value. Structures can show the parent of a compound that is named as a salt. Bounds are passed on as bounds.

By pIC50 is commonly meant the negative decadic logarithm of the IC50, by convention in mol/L.

The target in the first test is T1, Mouse SSAO/VAP-1 (Mus musculus, UniProt O70423).
T1 construct: Adipocytes were used as an SSAO source either as adherent cells or as a homogenate; endogenous in cells; host or cells: 3T3-L1 murine fibroblasts (ATCC) differentiated into adipocytes
T1 sequence (O70423 1-765): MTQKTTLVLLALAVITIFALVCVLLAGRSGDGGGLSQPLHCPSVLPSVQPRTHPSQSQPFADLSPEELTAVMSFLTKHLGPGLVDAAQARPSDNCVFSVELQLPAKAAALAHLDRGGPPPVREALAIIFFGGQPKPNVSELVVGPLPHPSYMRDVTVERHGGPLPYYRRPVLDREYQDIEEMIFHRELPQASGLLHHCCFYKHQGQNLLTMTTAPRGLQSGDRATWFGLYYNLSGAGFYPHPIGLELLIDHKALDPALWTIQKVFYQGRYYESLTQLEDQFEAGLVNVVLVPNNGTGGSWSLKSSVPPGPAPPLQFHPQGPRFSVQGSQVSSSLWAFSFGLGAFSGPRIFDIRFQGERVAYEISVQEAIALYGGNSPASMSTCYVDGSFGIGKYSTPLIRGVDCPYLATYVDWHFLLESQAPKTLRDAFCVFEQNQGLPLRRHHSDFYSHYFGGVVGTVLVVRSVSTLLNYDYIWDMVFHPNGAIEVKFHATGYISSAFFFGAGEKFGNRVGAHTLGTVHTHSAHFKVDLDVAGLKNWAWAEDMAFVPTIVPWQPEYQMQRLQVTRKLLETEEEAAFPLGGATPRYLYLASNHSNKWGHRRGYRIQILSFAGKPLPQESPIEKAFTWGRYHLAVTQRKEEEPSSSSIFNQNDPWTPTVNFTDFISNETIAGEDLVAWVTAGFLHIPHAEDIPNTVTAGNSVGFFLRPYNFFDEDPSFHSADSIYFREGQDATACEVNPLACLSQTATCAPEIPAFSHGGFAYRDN
As to the kind of experiment: Inhibition of amine oxidase activity of mouse SSAO/VAP-1 (3T3-L1 adipocytes, Amplex Red). Format: biochemical. Conditions: 3T3-L1 adipocyte SSAO, 30 min at 37° C. preincubation, 40 μM benzylamine. An excerpt: 3T3-L1 Murine fibroblasts were purchased from the American Type Culture Collection (ATCC, Rockville, Md.). Dulbecco's Modified Eagle Medium (DMEM) and fetal calf serum (FCS), antibiotics and Amplex® Red were obtained from Invitrogen (Carlsbad, Calif.). Tissue culture plastics and black clear-bottom 96 well plates were from BD Falcon (Bedford, Mass.). Bicinchoninic acid (BCA) reagent was from Pierce (Rockford, Ill.). All other materials were obtained from Sigma (St. Louis, Mo.).
3T3-L1 Fibroblasts were cultured in DMEM supplemented with 10% heat-inactivated FCS, 2 mM L-glutamine, 100 U/L penicillin and 100 μg/L streptomycin at 37° C. in 5% CO2. For differentiation into adipocytes, fibroblasts were cultured in DMEM with FCS for 1 or 2 days postconfluence, after which the cells were cultured for 3 days in DMEM containing 10% FCS, 350 nM insulin, 0.5 mM 3-isobutyl-1-methylxanthine, 250 nM dexamethasone, and 400 nM biotin and for 3 days in DMEM containing 10% FCS and 350 nM insulin. After differentiation, adipocytes were maintained in DMEM supplemented with 10% FCS. Adipocytes were used for experiments 8 to 11 days after the onset of differentiation, and the medium was renewed 2 or 3 days prior to each experiment. For culturing in black clear-bottom 96-well plates, cells were seeded at a 1:1 cell surface ratio, and differentiation was initiated 4 days postseeding. Cells were used between days 6-12 post-differentiation and between passages 7 and 20. Adipocytes were used as an SSAO source either as adherent cells or as a homogenate.
To prepare homogenate, 10 cm dishes of adipocytes were washed with HES buffer (20 mM HEPES, 1 mM EDTA, 250 mM sucrose, pH 7.4) and scraped in HES buffer containing 10 μg/mL leupeptin, 10 μM pepstatin and 1 mM PMSF. Cells were lysed by passage through a 23 G needle followed by passage through a 27 G needle. The lysate was spun at 500 g for 5 min and fat was removed. Protein concentration of the supernatant was measured using a BCA assay according to the manufacturer's instructions. The homogenate was stored at −80° C. until needed.
(§1) To measure the SSAO activity, adipocyte homogenate (0.5 mg/mL) or adipocytes (adhering cells) containing 0.5 mM pargyline, or purified human SSAO was incubated in 0.1 M sodium phosphate buffer pH 7.4 with varying concentrations of test compounds for 30 min at 37° C. The homogenate was then incubated at 37° C. with 60 μM Amplex® Red, 0.75 U/mL HRP and 40 μM benzylamine (mouse SSAO) or 300 μM benzylamine (human SSAO) and the formation of resorufin was measured (excitation range 530-560 nm and emission at 590 nm) every 10 min in either a Tecan Infinite 200 or a BMG plate reader. The IC50 values were estimated using Graphpad Prism software. The IC50 is an estimation of the concentration of the test compound to inhibit the amine oxidase activity of SSAO/VAP-1 by 50%. The IC50 values of certain invention compounds are included in Table 1.
As for `NC/C=C(/F)COc1ccc([N+](=O)[O-])cc1` [(E)-3-Fluoro-4-(4-nitrophenoxy)but-2-en-1-amine hydrochloride], the negative logarithm of the IC50 (pIC50) was greater than 5.00.

For `NC/C=C(/F)COc1ccc(Cl)cc1Cl` [(E)-4-(2,4-Dichlorophenoxy)-3-fluorobut-2-en-1-amine hydrochloride], the pIC50 is greater than 5.00.

The compound `NC/C=C(/F)COc1ccccc1` [(E)-3-fluoro-4-phenoxybut-2-en-1-amine hydrochloride] showed a negative-log IC50 (pIC50) greater than 5.00.

`NC/C=C(/F)COc1ccc(S(=O)(=O)N2CCOCC2)cc1` [(E)-3-Fluoro-4-(4-(morpholinosulfonyl)phenoxy)but-2-en-1-amine hydrochloride] showed a pIC50 greater than 5.00.

In turn, `CC(C)N(C(=O)c1ccc(OC/C(F)=C\CN)cc1)C(C)C` [(E)-4-(4-Amino-2-fluorobut-2-enyloxy)-N,N-diisopropylbenzamide hydrochloride] gave a negative-log IC50 (pIC50) greater than 4.00.

As for `NC/C=C(\Cl)Cc1cc(F)cc(F)c1` [(Z)-3-Chloro-4-(3,5-difluorophenyl)but-2-en-1-amine hydrochloride, reference compound], the pIC50 is greater than 6.00.

In a further test the target is T2, Human MAO-B (Homo sapiens, UniProt P27338).
T2 sequence (P27338 1-520): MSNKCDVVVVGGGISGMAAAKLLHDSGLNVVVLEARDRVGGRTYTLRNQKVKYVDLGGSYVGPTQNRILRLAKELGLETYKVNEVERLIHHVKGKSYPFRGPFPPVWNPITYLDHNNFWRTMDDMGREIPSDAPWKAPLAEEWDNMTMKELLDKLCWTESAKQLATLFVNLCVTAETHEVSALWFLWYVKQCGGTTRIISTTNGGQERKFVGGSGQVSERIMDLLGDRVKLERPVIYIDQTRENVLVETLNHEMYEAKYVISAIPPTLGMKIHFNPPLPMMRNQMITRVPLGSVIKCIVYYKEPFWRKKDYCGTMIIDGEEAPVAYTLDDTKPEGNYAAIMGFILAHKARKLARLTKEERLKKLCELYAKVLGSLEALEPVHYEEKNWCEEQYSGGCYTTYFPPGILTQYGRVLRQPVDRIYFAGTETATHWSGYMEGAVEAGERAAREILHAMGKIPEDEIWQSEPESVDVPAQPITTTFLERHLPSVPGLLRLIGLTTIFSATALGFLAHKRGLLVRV
In words: Inhibition of recombinant MAO-B (Amplex Red). As to conditions: 30 min at 37° C. preincubation, 50 μM benzylamine. Format: biochemical. On the procedure: Recombinant MAO-B was incubated in 0.1 M sodium phosphate buffer pH 7.4 with varying concentration of test compounds for 30 min at 37° C. The homogenate/protein was then incubated at 37° C. with […] Amplex® Red, 0.75 U/ml HRP and 40 μM benzylamine (mouse SSAO), 300 μM benzylamine (human SSAO), 100 μM tyramine (MAO-A) or 50 μM benzylamine (MAO-B) and the formation of resorufin was measured (excitation range 530-560 nm and emission at 590 nm) every 5 min in either a Tecan Infinite 200 or a BMG Fluorostar Optima platereader. IC50 were estimated using Graphpad Prism software.
As for `NC/C=C(/F)COc1ccc([N+](=O)[O-])cc1` [(E)-3-Fluoro-4-(4-nitrophenoxy)but-2-en-1-amine hydrochloride], the negative-log IC50 (pIC50) is greater than 6.00.

For `NC/C=C(/F)COc1ccc(Cl)cc1Cl` [(E)-4-(2,4-Dichlorophenoxy)-3-fluorobut-2-en-1-amine hydrochloride], the pIC50 is greater than 6.00.

Turning to `NC/C=C(/F)COc1ccccc1` [(E)-3-fluoro-4-phenoxybut-2-en-1-amine hydrochloride], the pIC50 was greater than 6.00.

As for `NC/C=C(/F)COc1ccc(S(=O)(=O)N2CCOCC2)cc1` [(E)-3-Fluoro-4-(4-(morpholinosulfonyl)phenoxy)but-2-en-1-amine hydrochloride], the negative logarithm of the IC50 (pIC50) is greater than 5.00.

In the case of `CC(C)N(C(=O)c1ccc(OC/C(F)=C\CN)cc1)C(C)C` [(E)-4-(4-Amino-2-fluorobut-2-enyloxy)-N,N-diisopropylbenzamide hydrochloride], the negative logarithm of the IC50 (pIC50) is greater than 4.00.

The next test addresses T3, Human SSAO/VAP-1 (Homo sapiens, UniProt Q16853).
T3 sequence (Q16853 1-763): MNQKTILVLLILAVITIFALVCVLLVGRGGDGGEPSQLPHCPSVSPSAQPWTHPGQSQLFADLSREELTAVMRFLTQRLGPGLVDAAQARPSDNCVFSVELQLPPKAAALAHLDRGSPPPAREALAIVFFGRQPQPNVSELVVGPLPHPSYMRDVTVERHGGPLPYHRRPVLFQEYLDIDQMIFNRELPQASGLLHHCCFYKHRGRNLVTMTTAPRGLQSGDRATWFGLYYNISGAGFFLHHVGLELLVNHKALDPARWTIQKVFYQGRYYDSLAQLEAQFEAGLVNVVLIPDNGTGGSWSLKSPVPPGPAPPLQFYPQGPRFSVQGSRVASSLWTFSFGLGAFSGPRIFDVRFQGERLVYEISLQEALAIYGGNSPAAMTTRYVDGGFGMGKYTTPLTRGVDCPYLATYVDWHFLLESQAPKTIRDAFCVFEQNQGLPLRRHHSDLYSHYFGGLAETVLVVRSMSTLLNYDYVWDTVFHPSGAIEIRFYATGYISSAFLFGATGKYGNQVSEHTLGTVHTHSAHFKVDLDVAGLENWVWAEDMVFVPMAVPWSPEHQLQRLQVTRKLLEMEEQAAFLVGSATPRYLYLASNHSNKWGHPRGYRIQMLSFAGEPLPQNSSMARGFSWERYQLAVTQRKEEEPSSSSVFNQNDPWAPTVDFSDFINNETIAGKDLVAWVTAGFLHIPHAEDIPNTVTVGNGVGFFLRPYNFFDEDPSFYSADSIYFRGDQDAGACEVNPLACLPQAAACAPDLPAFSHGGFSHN
As to the kind of experiment: Inhibition of amine oxidase activity of purified human SSAO/VAP-1 (Amplex Red). Format: biochemical. As to conditions: purified human SSAO, 30 min at 37° C. preincubation, 300 μM benzylamine. On the procedure: as §1
The compound `NC/C=C(/F)COc1ccc([N+](=O)[O-])cc1` [(E)-3-Fluoro-4-(4-nitrophenoxy)but-2-en-1-amine hydrochloride] had a pIC50 greater than 6.00.

Compound `NC/C=C(/F)COc1ccc(Cl)cc1Cl` [(E)-4-(2,4-Dichlorophenoxy)-3-fluorobut-2-en-1-amine hydrochloride] gave a pIC50 greater than 6.00.

`NC/C=C(/F)COc1ccccc1` [(E)-3-fluoro-4-phenoxybut-2-en-1-amine hydrochloride] showed a pIC50 greater than 6.00.

In the case of `NC/C=C(/F)COc1ccc(S(=O)(=O)N2CCOCC2)cc1` [(E)-3-Fluoro-4-(4-(morpholinosulfonyl)phenoxy)but-2-en-1-amine hydrochloride], the pIC50 was greater than 6.00.

Regarding `CC(C)N(C(=O)c1ccc(OC/C(F)=C\CN)cc1)C(C)C` [(E)-4-(4-Amino-2-fluorobut-2-enyloxy)-N,N-diisopropylbenzamide hydrochloride], the pIC50 was greater than 6.00.

The compound `NC/C=C(\Cl)Cc1cc(F)cc(F)c1` [(Z)-3-Chloro-4-(3,5-difluorophenyl)but-2-en-1-amine hydrochloride, reference compound] gave a pIC50 greater than 5.00.
